Laboratory results as given in US6291694A, “Process and intermediates useful to produce vitamin D analogs” (Hoffman-La Roche Inc., priority 2000, dated 2001).

assay: pKa of alcohol additive in water; format: physicochemical

Compound | pKa in water
OC(c1ccccc1)(C(F)(F)F)C(F)(F)F [formula 15c, 1,1,1,3,3,3-hexafluoro-2-phenyl-2-propanol] | 8.52
CC(O)(C(F)(F)F)C(F)(F)F [formula 15a] | 9.51
OC(c1cccc(C(O)(C(F)(F)F)C(F)(F)F)c1)(C(F)(F)F)C(F)(F)F [Formula 16, 1,3-bis(1,1,1,3,3,3, -hexafluoro-2-hydroxypropyl)benzene] | 8.48
OC(C(F)(F)F)C(F)(F)F [formula 15b] | 9.13
OC(C(F)(F)F)(C(F)(F)F)C(F)(F)F [formula 15d, perfluoro-t-butanol] | 5.18
